From ChEMBL document CHEMBL2069231, “Combining pharmacophore, docking and substructure search approaches to identify and optimize novel B-RafV600E inhibitors” (Bioorg Med Chem Lett, 2012)

Key:
[1] = tested on: Serine/threonine-protein kinase B-raf (Homo sapiens), P15056 [V600E]; assay: Inhibition of BRAF V600E mutant at 10 uM by ELISA
[2] = tested on: Serine/threonine-protein kinase B-raf (Homo sapiens), P15056 [V600E]; assay: Inhibition of BRAF V600E mutant at 1 uM by ELISA
[3] = molecular target: Serine/threonine-protein kinase B-raf (Homo sapiens, UniProt P15056, V600E); assay: Inhibition of BRAF V600E mutant by ELISA
Serine/threonine-protein kinase B-raf, sequence (P15056 2-766 V600E limits assumed): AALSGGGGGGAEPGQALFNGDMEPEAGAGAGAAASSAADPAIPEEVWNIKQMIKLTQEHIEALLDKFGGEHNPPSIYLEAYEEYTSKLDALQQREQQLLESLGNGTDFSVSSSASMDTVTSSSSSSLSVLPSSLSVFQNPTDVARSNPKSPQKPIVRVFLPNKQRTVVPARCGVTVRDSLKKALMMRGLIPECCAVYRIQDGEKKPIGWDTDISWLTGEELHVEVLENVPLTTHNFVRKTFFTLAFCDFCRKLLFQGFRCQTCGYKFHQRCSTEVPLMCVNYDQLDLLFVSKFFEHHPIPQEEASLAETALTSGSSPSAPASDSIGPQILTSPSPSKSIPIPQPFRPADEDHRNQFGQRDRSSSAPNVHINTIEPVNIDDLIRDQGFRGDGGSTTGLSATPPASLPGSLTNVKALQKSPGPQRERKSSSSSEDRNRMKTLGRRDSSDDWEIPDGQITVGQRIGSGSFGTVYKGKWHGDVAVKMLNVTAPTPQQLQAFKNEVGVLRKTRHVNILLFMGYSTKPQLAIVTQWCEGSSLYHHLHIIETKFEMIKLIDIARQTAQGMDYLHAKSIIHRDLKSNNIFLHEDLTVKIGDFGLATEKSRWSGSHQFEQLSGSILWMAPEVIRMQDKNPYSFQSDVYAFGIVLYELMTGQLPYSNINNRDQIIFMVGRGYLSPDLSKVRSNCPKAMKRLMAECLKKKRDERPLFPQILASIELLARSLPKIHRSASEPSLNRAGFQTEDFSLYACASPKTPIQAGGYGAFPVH

Serine/threonine-protein kinase B-raf (Homo sapiens), P15056 [V600E], sequence (P15056 whole entry V600E): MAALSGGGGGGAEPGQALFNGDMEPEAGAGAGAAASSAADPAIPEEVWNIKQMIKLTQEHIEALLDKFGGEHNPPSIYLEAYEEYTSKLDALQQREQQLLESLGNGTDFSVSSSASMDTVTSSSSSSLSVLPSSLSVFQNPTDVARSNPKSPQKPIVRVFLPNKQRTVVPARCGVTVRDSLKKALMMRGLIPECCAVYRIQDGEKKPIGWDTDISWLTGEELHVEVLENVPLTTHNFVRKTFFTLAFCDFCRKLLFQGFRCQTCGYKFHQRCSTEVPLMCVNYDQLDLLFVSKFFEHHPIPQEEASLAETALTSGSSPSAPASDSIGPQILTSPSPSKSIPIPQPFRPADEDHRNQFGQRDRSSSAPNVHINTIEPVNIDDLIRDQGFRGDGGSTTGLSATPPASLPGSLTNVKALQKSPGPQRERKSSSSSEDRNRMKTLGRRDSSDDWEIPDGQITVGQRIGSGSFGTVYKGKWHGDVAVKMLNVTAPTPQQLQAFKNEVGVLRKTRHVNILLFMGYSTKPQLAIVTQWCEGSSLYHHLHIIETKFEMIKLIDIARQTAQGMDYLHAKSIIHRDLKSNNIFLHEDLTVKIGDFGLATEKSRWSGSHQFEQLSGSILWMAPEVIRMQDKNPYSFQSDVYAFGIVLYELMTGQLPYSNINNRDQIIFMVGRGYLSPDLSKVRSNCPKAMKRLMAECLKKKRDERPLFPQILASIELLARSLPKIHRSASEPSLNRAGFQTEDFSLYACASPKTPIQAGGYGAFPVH

COC(=O)c1cc(Br)ccc1-c1ccc(C=C2C(=O)NC(=S)NC2=O)o1
inhibition [1]: 86%
inhibition [2]: 61%

O=C1NC(=S)N(c2ccc(Br)cc2)C(=O)/C1=C\c1ccc(-c2ccccc2C(=O)O)o1
inhibition [1]: 100%
IC50 [3]: 3450 nM
inhibition [2]: 32%

CCOc1cc(C=C2C(=O)NC(=S)NC2=O)ccc1OCC(=O)Nc1cccc(C)c1
inhibition [1]: 81%
inhibition [2]: 23%

O=C1NC(=S)N(c2ccc(Br)cc2)C(=O)/C1=C\c1ccc(-c2ccc(C(=O)O)cc2)o1
inhibition [1]: 97%
IC50 [3]: 2230 nM
inhibition [2]: 38%

O=C1NC(=S)NC(=O)C1=Cc1cccc(OC(=O)c2cccc(F)c2)c1
inhibition [1]: 19%
inhibition [2]: 17%

COc1cc(C=C2C(=O)NC(=S)NC2=O)ccc1OC(=O)c1cccc(F)c1
inhibition [1]: 28%
inhibition [2]: < 5%

CS(=O)(=O)N(CCC#N)Cc1ccc(/C=C2/C(=O)NC(=S)N(c3ccc(Cl)c(Cl)c3)C2=O)o1
inhibition [1]: 97%
IC50 [3]: 820 nM
inhibition [2]: 60%

O=C1NC(=S)NC(=O)C1=Cc1ccc(-c2ccccc2[N+](=O)[O-])o1
inhibition [1]: 93%
IC50 [3]: 670 nM
inhibition [2]: 55%

O=C1NC(=S)NC(=O)C1=Cc1ccc(Oc2ccc([N+](=O)[O-])cn2)cc1
inhibition [1]: 41%
inhibition [2]: < 5%

CCOc1ccc(C=C2C(=O)NC(=S)NC2=O)cc1Cl
inhibition [1]: 71%
inhibition [2]: 12%

CC(C)COC(=O)c1ccc(-c2ccc(C=C3C(=O)NC(=S)NC3=O)o2)cc1
inhibition [1]: 37%
inhibition [2]: 31%

Cc1ccc(N2C(=O)/C(=C\c3ccc(-c4ccc(F)cc4)o3)C(=O)NC2=S)cc1
inhibition [1]: 74%
IC50 [3]: 4110 nM
inhibition [2]: 13%

O=C1NC(=S)N(c2cccc(Cl)c2Cl)C(=O)/C1=C\c1ccc(-c2ccc(C(=O)O)cc2)o1
inhibition [1]: 100%
IC50 [3]: 1540 nM
inhibition [2]: 46%

Cc1ccc(N2C(=O)/C(=C\c3ccc(-c4ccc(C(=O)O)cc4)o3)C(=O)NC2=S)cc1
inhibition [1]: 97%
IC50 [3]: 1600 nM
inhibition [2]: 35%

O=C1NC(=S)NC(=O)C1=Cc1ccc(-c2ccc([N+](=O)[O-])cc2)o1
inhibition [1]: 91%
IC50 [3]: 730 nM
inhibition [2]: 59%

N#Cc1ccccc1-c1ccc(C=C2C(=O)NC(=S)NC2=O)o1
inhibition [1]: 93%
IC50 [3]: 740 nM
inhibition [2]: 60%

COc1ccc(C=C2C(=O)NC(=S)NC2=O)cc1OC(=O)c1cccc(Cl)c1
inhibition [1]: 88%
inhibition [2]: 9%

COc1cc(C=C2C(=O)NC(=S)NC2=O)ccc1OCCC(C)C
inhibition [1]: 81%
inhibition [2]: 21%

O=C1NC(=S)NC(=O)C1=Cc1ccc(OCc2ccccc2)c(Cl)c1
inhibition [1]: 91%
inhibition [2]: 31%

Cc1ccc([N+](=O)[O-])cc1-c1ccc(C=C2C(=O)NC(=S)NC2=O)o1
inhibition [1]: 57%
inhibition [2]: 51%

O=C1NC(=S)NC(=O)C1=Cc1ccc(OCC(=O)N2CCCC2)cc1
inhibition [1]: 52%
inhibition [2]: 9%

Cc1cccc(N2C(=O)/C(=C\c3ccc(CN(CCC#N)S(C)(=O)=O)o3)C(=O)NC2=S)c1
inhibition [1]: 84%
IC50 [3]: 500 nM
inhibition [2]: 55%

O=C1NC(=S)N(c2ccc(Br)cc2)C(=O)/C1=C\c1ccc(-c2cccc(C(=O)O)c2)o1
inhibition [1]: 100%
IC50 [3]: 1800 nM
inhibition [2]: 43%

CCCS(=O)(=O)Nc1ccc(F)c(C(=O)c2c[nH]c3ncc(-c4ccc(Cl)cc4)cc23)c1F
inhibition [1]: 92%
inhibition [2]: 72%

O=C1NC(=S)N(c2ccc(Br)cc2)C(=O)/C1=C\c1ccc(-c2ccc(C(=O)O)c(Cl)c2)o1
inhibition [1]: 89%
IC50 [3]: 4750 nM
inhibition [2]: 28%

COc1ccc(C=C2C(=O)NC(=S)NC2=O)cc1OCc1ccc(Br)cc1
inhibition [1]: 87%
inhibition [2]: 12%

COc1cccc(N2C(=O)/C(=C\c3ccc(CN(CCC#N)S(C)(=O)=O)o3)C(=O)NC2=S)c1
inhibition [1]: 74%
IC50 [3]: 1840 nM
inhibition [2]: 32%

Cc1ccc(N2C(=O)/C(=C\c3ccc(-c4ccc(C(=O)O)c(Cl)c4)o3)C(=O)NC2=S)cc1
inhibition [1]: 99%
IC50 [3]: 3240 nM
inhibition [2]: 28%

Cc1ccc(N2C(=O)/C(=C\c3ccc(CN(CCC#N)S(C)(=O)=O)o3)C(=O)NC2=S)cc1Cl
inhibition [1]: 99%
IC50 [3]: 310 nM
inhibition [2]: 68%

Cc1c(Cl)cccc1N1C(=O)/C(=C\c2ccc(-c3ccc(C(=O)O)cc3)o2)C(=O)NC1=S
inhibition [1]: 100%
IC50 [3]: 2490 nM
inhibition [2]: 38%

COc1ccc(C=C2C(=O)NC(=S)NC2=O)cc1OC(=O)c1ccc(C)cc1
inhibition [1]: 38%
inhibition [2]: < 5%

O=C1NC(=S)NC(=O)C1=Cc1ccc(-c2cccc([N+](=O)[O-])c2)o1
inhibition [1]: 85%
IC50 [3]: 830 nM
inhibition [2]: 48%

Cc1ccc(N2C(=O)/C(=C\c3ccc(-c4ccc(Cl)c(C(=O)O)c4)o3)C(=O)NC2=S)cc1
inhibition [1]: 71%
inhibition [2]: 5%

Cc1ccc(Cl)cc1-c1ccc(C=C2C(=O)NC(=S)NC2=O)o1
inhibition [1]: 75%
inhibition [2]: 54%

COc1cc(C=C2C(=O)NC(=S)NC2=O)ccc1OC(F)F
inhibition [1]: 17%
inhibition [2]: 14%

CCOC(=O)c1ccccc1-c1ccc(/C=C2/C(=O)NC(=S)N(c3ccc(C)cc3)C2=O)o1
inhibition [1]: 88%
IC50 [3]: 1020 nM
inhibition [2]: 56%

COc1ccc(C=C2C(=O)NC(=S)NC2=O)cc1OC(=O)c1ccccc1
inhibition [1]: 77%
IC50 [3]: 4010 nM
inhibition [2]: 46%

Cc1cccc(C)c1OCCOc1ccc(C=C2C(=O)NC(=S)NC2=O)cc1
inhibition [1]: 95%
inhibition [2]: 42%

CS(=O)(=O)N(CCC#N)Cc1ccc(/C=C2/C(=O)NC(=S)N(c3ccc(Br)cc3)C2=O)o1
inhibition [1]: 96%
IC50 [3]: 440 nM
inhibition [2]: 88%

CCOc1cc(C=C2C(=O)NC(=S)NC2=O)ccc1O
inhibition [1]: 68%
inhibition [2]: 15%

COc1cc(C=C2C(=O)NC(=S)NC2=O)ccc1OCCO
inhibition [1]: 34%
inhibition [2]: < 5%

CCOc1ccc(N2C(=O)/C(=C\c3ccc(CN(CCC#N)S(C)(=O)=O)o3)C(=O)NC2=S)cc1
inhibition [1]: 91%
IC50 [3]: 1140 nM
inhibition [2]: 43%

COC(=O)c1ccccc1-c1ccc(/C=C2/C(=O)NC(=S)N(c3ccc(C)cc3)C2=O)o1
inhibition [1]: 88%
IC50 [3]: 1650 nM
inhibition [2]: 37%

CCN(C)c1ccc(-c2ccc(C=C3C(=O)NC(=S)NC3=O)cc2)cc1
inhibition [1]: < 5%
inhibition [2]: < 5%

Cc1ccc(N2C(=O)/C(=C\c3ccc(CN(CCC#N)S(C)(=O)=O)o3)C(=O)NC2=S)cc1
inhibition [1]: 99%
IC50 [3]: 970 nM
inhibition [2]: 48%

Cc1ccc(N2C(=O)/C(=C\c3ccc(-c4cccc(C(=O)O)c4)o3)C(=O)NC2=S)cc1
inhibition [1]: 98%
IC50 [3]: 4020 nM
inhibition [2]: 33%
